The results in this text go back to patent US8236527B2, “Recombinant production of authentic human proteins using human cell expression systems” (Humanzyme Limited, priority 2008, dated 2012).

Structures can show the parent of a compound that is named as a salt. Where two headings read alike, the source gives them in different places.

For data set [1], the target named is p38α expressed in E. coli, Vendor A, in vitro activated by MKK6 (Homo sapiens, UniProt Q16539). Kind of data set: Kinase inhibitor IC50 determination with E. coli p38α (Vendor A, E coli-I). The format is biochemical.
For data set [2], the target named is p38α produced and activated in human cells (Homo sapiens, UniProt Q16539). Kind of data set: Kinase inhibitor IC50 determination with p38α produced in human cells. Format: biochemical. The settings on record: read-out: IC50, Human Cell.
Data set [3] concerns the target p38α expressed in E. coli, Vendor B, in vitro activated by MKK6 (Homo sapiens, UniProt Q16539). As to the kind of experiment: Kinase inhibitor IC50 determination with E. coli p38α (Vendor B, E coli-II). Format: biochemical.
The subject of data set [4] is whole CD4+ cells from a healthy donor. Kind of data set: Th17 polarizing cytokines: IL-17 secretion from human CD4+ cells (ELISA). The settings on record: for induction of IL-17 secretion: compared with cytokines from insect cell or bacterial expression system, 5 days; for Th17 cell polarization: separate study, same condition. The format is cell-based. From the text:
IL-17-producing CD4+ T cells (Th-17 cells) have been identified as a unique subset of Th cells that develop along a pathway that is distinct from the Th1, and Th2-cell differentiation pathways. This finding has provided exciting new insights into immunoregulation, host defense and the pathogenesis of autoimmune diseases. Recently it has been shown that IL1β, IL6 and IL23 are important in driving human Th17 differentiation. However, TGF-β1, which is important for the differentiation of murine Th17 cells, is reported to be not required, and even inhibits human Th17 differentiation (McGeachy & Cua (2008) Immunity 28:445, Chen & O'Shea (2008) Cytokines 41:71). In this study, whole […] cells isolated from a healthy donor were stimulated with 10 μg/mL plate bound anti-CD3 and 10 μg/ml soluble anti-CD28 in the presence of Th17 polarizing cytokines from the inventive human cell expression system and from an insect cell or bacterial expression system. After 5 days supernatants were harvested for measurement of IL-17 by ELISA.
On the technique in general: An ELISA detects its analyte on a solid surface through an enzyme-linked reagent.

Data set [5] deals with human TF-1 cells. Kind of data set: IL-4 bioactivity: dose-dependent stimulation of proliferation of TF-1 cells. Format: cell-based. The settings on record: TF-1 cell proliferation.
Data set [6] is described as follows: Km.ATP of p38α preparations. The format is biochemical.
Data set [7] concerns human CD4+ T cells. Kind of data set: IL-23 activity: IL-17 secretion from human CD4+ T cells (ELISA). Particulars: human CD4+ cells, 5 days. Format: cell-based. The protocol: (A) IL-23 activities determined by the dose-dependent secretion of IL-17 from mouse splenocytes activated with 10 ng/ml PMA. (B) IL-23 activities determined by the dose-dependent secretion of IL-17 from human CD4+ T cells stimulated with […] plate bound anti-CD3 and […] soluble anti-CD28 in the presence of Th17 polarizing cytokines.
FIG. 22: Efficient differentiation of Th17 cells with authentic cytokines expressed in human cells. Whole CD4+ T cells isolated from a healthy donor were stimulated with 2 μg/mL plate bound anti-CD3 and 1 μg/mL soluble anti-CD28 in the presence of Th17 polarizing cytokines, including a titration of IL-23. After 5 days, supernatants were harvested for measurement of IL-17 by ELISA. See (A)-(G). FIG. 22 (H) depicts flow cytometry analysis on Human Th17 Differentiation by Authentic human TGF-β1. See Example 17 below.
IL-17-producing CD4+ T cells (Th17 cells) have been identified as a unique subset of T helper cells that develop along a pathway that is distinct from the Th1 and Th2-cell differentiation pathways. This finding has provided exciting new insights into immunoregulation, host defense and the pathogenesis of autoimmune diseases. Recently it has been shown that TGF-β1, […], IL-6 and IL-23 are important in driving human Th17 differentiation (Chen & O'Shea (2008) Cytokines 41:71). […] The activities were further assayed with human CD4+ cells which were isolated from a healthy donor and stimulated with 10 μg/ml plate bound anti-CD3 and 10 μg/ml soluble anti-CD28 in the presence of Th17 polarizing cytokines. After 5 days supernatants were harvested for measurement of IL-17 by ELISA.

Data set [8] deals with human umbilical vein endothelial cells. Kind of data set: VEGF165 bioactivity: proliferation of human umbilical vein endothelial cells. Particulars: HUVEC proliferation. The format is cell-based.
In data set [9] the test system is human embryonic stem (hES) cells. Kind of data set: Oct3/4 expression in Noggin-treated human embryonic stem cells (Western blot). The format is cell-based. Particulars: 10 pg/ml and 20 pg/ml treatment. In general terms: A western blot detects proteins with antibodies after separation by electrophoresis.
The mark [10] stands for this setting: p38α from E. coli, Vendor A, read-out: IC50, E coli-I.
[11] abbreviates: p38α from E. coli, Vendor B, read-out: IC50, E coli-II.

Sequence of p38α produced and activated in human cells (Q16539 whole entry): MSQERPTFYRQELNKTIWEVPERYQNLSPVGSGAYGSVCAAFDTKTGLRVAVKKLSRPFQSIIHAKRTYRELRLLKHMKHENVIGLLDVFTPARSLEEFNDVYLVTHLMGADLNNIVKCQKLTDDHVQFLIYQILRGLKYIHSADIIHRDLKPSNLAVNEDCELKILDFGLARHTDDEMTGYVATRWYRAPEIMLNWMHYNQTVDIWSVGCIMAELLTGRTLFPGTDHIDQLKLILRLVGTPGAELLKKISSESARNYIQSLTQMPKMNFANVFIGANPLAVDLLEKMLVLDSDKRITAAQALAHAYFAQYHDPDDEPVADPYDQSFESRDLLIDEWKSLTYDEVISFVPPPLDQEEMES
Sequence of p38α expressed in E. coli, Vendor A, in vitro activated by MKK6 (Q16539 whole entry): as above
Sequence of p38α expressed in E. coli, Vendor B, in vitro activated by MKK6 (Q16539 whole entry): as above

As for `Nc1ncnc2c1c(I)cn2[C@@H]1O[C@H](CO)[C@@H](O)[C@H]1O` [5-iodotubercidin], the IC50 in data set [1] (read-out: IC50, E coli-I) was > 10 µM; in data set [2], > 10 µM; in [3] (read-out: IC50, E coli-II), > 10 µM.
In the case of `Nc1ncnc2c1ncn2[C@@H]1O[C@H](COP(=O)(O)OP(=O)(O)NP(=O)(O)O)[C@@H](O)[C@H]1O` [AMP-PNP], the “fold less sensitive than human cell p38α” value in data set [1] (Vendor A preparation vs p38α from human cells) was found to be 7 fold. For the same molecule, the IC50 in data set [1] (setting [10]) was 1810 µM; in data set [2] (p38α produced in human cells), 257 µM; in [3] (setting [11]), > 2000 µM.
In the case of `CN(C)CCCn1cc(C2=C(c3c[nH]c4ccccc34)C(=O)NC2=O)c2ccccc21` [GF 109203X], the IC50 in data set [1] (setting [10]), in data set [2] and in data set [3] (setting [11]) was > 10 µM each time.
Consider `O=S(=O)(NCCNC/C=C/c1ccc(Br)cc1)c1cccc2cnccc12` [H89 Dihydrochloride], for which the concentration for half-maximal inhibition (IC50) in data set [1] (setting [10]), in data set [2] (p38α produced in human cells) and in data set [3] (setting [11]) was > 10 µM in each case.
With `NCCNS(=O)(=O)c1cccc2cnccc12` [H-9 dihydrochloride], the half-maximal inhibitory concentration (IC50) in data set [1] (setting [10]), in data set [2] (p38α produced in human cells) and in [3] (setting [11]) was > 10 µM in each case.
As to `COC(=O)[C@@]1(O)C[C@H]2O[C@]1(C)n1c3ccccc3c3c4c(c5c6ccccc6n2c5c31)C(=O)NC4` [K252a], the IC50 was > 10 µM in data set [1], 0.005 µM in data set [2] and > 10 µM in data set [3].
Turning to `CCCCCCOC(=O)[C@]1(O)C[C@@H]2O[C@@]1(C)n1c3ccccc3c3c4c(c5c6ccccc6n2c5c31)C(=O)NC4` [KT5720], the IC50 is > 10 µM in data set [1] (setting [10]), 5 µM in data set [2] (p38α produced in human cells) and > 10 µM in data set [3] (setting [11]).
As for `Cn1cc(C2=C(c3cn(CCCSC(=N)N)c4ccccc34)C(=O)NC2=O)c2ccccc21` [Ro 31-8220], the concentration for half-maximal inhibition (IC50) in data set [1] (setting [10]) is > 10 µM; in data set [2] (p38α produced in human cells), 9.9 µM; in [3] (setting [11]), > 10 µM.
`CN(C)C[C@H]1CCn2c(c(C3=C(c4cn(C)c5ccccc45)C(=O)NC3=O)c3ccccc32)C1` [Ro 32-0432]: the half-maximal inhibitory concentration (IC50) in [1] (setting [10]), in data set [2] (p38α produced in human cells) and in [3] (setting [11]) was > 10 µM throughout.
As for `CC(=O)c1c(O)c(C)c(O)c(Cc2c(O)c3c(c(C(=O)/C=C/c4ccccc4)c2O)OC(C)(C)C=C3)c1O` [Rottlerin], the results for the half-inhibitory concentration (IC50) in [1], in data set [2] and in data set [3] were > 200 µM, >200 µM and > 200 µM, respectively.
As to “IL1β: recombinantly-produced, authentic human IL1β from the human cell expression system”, in data set [4], the “induction of IL-17 secretion” value is recorded as “significantly more effective”.
For “IL4: IL4 from human cells, glycosylated major band of 19 kD; SEQ ID NO: 22”, the “fold higher potency than the E. coli expressed cytokine” value in data set [5] is on record as 4 fold.
As to “IL6: recombinantly-produced, authentic human IL6; SEQ ID NO: 16”, in data set [4], the “induction of IL-17 secretion” value is listed as “significantly more effective”.
The same measure, in the same setting: the result for “TGF-β1 from insect cells: TGF-β1 cytokine from insect cells used as comparator” reads “marginal effect”.
Consider “Vendor B enzyme: p38α from Vendor B, expressed and purified from E. coli, in vitro activated by MKK6”, for which the Michaelis constant (Km) in data set [6] came out at 120 µM.
On the same count and under the same terms, to “Vendor preparation: p38α from Vendor A, expressed and purified from E. coli, in vitro activated by MKK6” belongs 212 ± 26 µM; to “authentic p38α: recombinantly-produced, authentic human p38a produced and activated in human cells in the presence of arsenite”, 109 ± 12 µM.

B1: insect cell-produced IL-23: commercially available recombinant IL-23 from an insect cell expression system (protein, UniProt Q9NPF7 20-189; P29460 23-328, looked up)
Interleukin-23 subunit alpha: RAVPGGSSPAWTQCQQLSQKLCTLAWSAHPLVGHMDLREEGDEETTNDVPHIQCGDGCDPQGLRDNSQFCLQRIHQGLIFYEKLLGSDIFTGEPSLLPDSPVGQLHASLLGLSQLLQPEGHHWETQQIPSLSPSQPWQRLLLRFKILRSLQAFVAVAARVFAHGAATLSP
Interleukin-12 subunit beta: IWELKKDVYVVELDWYPDAPGEMVVLTCDTPEEDGITWTLDQSSEVLGSGKTLTIQVKEFGDAGQYTCHKGGEVLSHSLLLLHKKEDGIWSTDILKDQKEPKNKTFLRCEAKNYSGRFTCWWLTTISTDLTFSVKSSRGSSDPQGVTCGAATLSAERVRGDNKEYEYSVECQEDSACPAAEESLPIEVMVDAVHKLKYENYTSSFFIRDIIKPDPPKNLQLKPLKNSRQVEVSWEYPDTWSTPHSYFSLTFCVQVQGKSKREKKDRVFTDKTSATVICRKNASISVRAQDRYYSSSWSEWASVPCS
Turning to B1, the “concentration at which maximum induction of IL-17 secretion was achieved” value in data set [7] is 10 ng/mL.

B2: authentic human VEGF165: VEGF165 from engineered human 293 cells, glycosylated homodimer of 45 kD; SEQ ID NO: 2 (protein)
chain: APMAEGGGQNHHEVVKFMDVYQRSYCHPIETLVDIFQEYPDEIEYIFKPSCVPLMRCGGCCNDEGLECVPTEESNITMQIMRIKPHQGQHIGEMSFLQHNKCECRPKKDRARQENPCGPCSERRKHLFVQDPQTCKCSCKNTDSRCKARQLELNERTCRCDKPRR
modifications: glycosylated homodimer
Regarding B2, the entries for the “fold more active than the E. coli expressed protein” value in data set [8] and in data set [8] (listed as VEGF165) were 10 fold and 6 fold, respectively.

B3: TGF-β2: TGF-β2 from engineered human 293 cells, disulfide-linked dimer of 25 kD (protein, UniProt P61812 303-414, looked up)
Transforming growth factor …: ALDAAYCFRNVQDNCCLRPLYIDFKRDLGWKWIHEPKGYNANFCAGACPYLWSSDTQHSRVLSLYNTINPEASASPCCVSQDLEPLTILYYIGKTPKIEQLSNMIVKSCKCS
Turning to B3, in data set [4], the Th17 cell polarization result is given as “can effectively induce Th17 cell polarization”.

B4: TGF-β3: TGF-β3 from engineered human 293 cells, disulfide-linked dimer of 25 kD (protein, UniProt P10600 301-412, looked up)
Transforming growth factor …: ALDTNYCFRNLEENCCVRPLYIDFRQDLGWKWVHEPKGYYANFCSGPCPYLRSADTTHSTVLGLYNTLNPEASASPCCVPQDLEPLTILYYVGRTPKVEQLSNMVVKSCKCS
For the molecule B4, the Th17 cell polarization result in data set [4] is recorded as “can effectively induce Th17 cell polarization”.

B5: authentic human Noggin: Noggin from human 293 cell expression system, glycosylated, disulfide-linked dimer; SEQ ID NO: 24 (protein)
chain: QHYLHIRPAPSDNLPLVDLIEHPDPIFDPKEKDLNETLLRSLLGGHYDPGFMATSPPEDRPGGGGGAAGGAEDLAELDQLLRQRPSGAMPSEIKGLEFSEGLAQGKKQRLSKKLRRKLQMWLWSQTFCPVLYAWNDLGSRFWPRYVKVGSCFSKRSCSVPEGMVCKPSKSVHLTVLRWRCQRRGGQRCGWIPIQYPIISECKCSC
modifications: glycosylated disulfide-linked homodimer
Turning to B5, the “Oct3/4 expression (marker for undifferentiated hES cells)” value in data set [9] is “consistently expressed Oct3/4”; in [9] (listed as authentic human homodimer Noggin), “expresses so effectively and consistently Oct3/4”.

What is called IC50 is the concentration needed to halve the response being measured. By Km is commonly meant the concentration of substrate that gives half-maximal velocity.
